Data reported in patent publication US20260137700A1, “PHARMACEUTICAL COMBINATION OF PRMT5 INHIBITOR AND DNA DAMAGE-INDUCING SUBSTANCE” (SK Biopharmaceuticals Co., Ltd., priority 2022, published 2026).

Assays:
[1] = tested on: symmetric dimethyl arginine (SDMA); experiment: In vivo target inhibition: SDMA ELISA in tumor samples of the Mia PaCa-2 xenograft mouse model; details: co-administration with 60 mg/kg gemcitabine
Protocol: Quantitative reduction levels of symmetric dimethyl arginine (SDMA) in tumor samples harvested from a subcutaneous xenograft mouse model of Mia PaCa-2 were measured by enzyme-linked immunosorbent assay (ELISA).
Reagents: Bradford solution (catalog no. 500-0006) was purchased from Bio-rad (USA). SDMA antibody (catalog no. 13222s) was purchased from Cell signaling Technology (USA). SmD3 antibody (catalog no. ap12451a) was purchased from Abgent (USA). Secondary antibody (catalog no. ab6721) and TMB substrate (catalog no. ab210902) were purchased from Abcam (UK).
Experimental procedure: Tumor tissue transplanted into mice was extracted, cells were lysed, and quantified with Bradford solution. […] of protein per sample was diluted with carbonate-bicarbonate buffer, dispensed into a 96-well plate, and reacted at room temperature for 2 hours. After washing three times with phosphate-buffered saline (PBST) containing 0.05% Tween-20, 200 μL of PBST containing 5% bovine serum albumin (BSA) (BSA-PBST) was added, and reacted at room temperature for 2 hours. After washing three times with PBST, 100 μL of SDMA antibody and SmD3 antibody were diluted in BSA-PBST, each was dispensed, and reacted overnight at 4° C. After washing three times with PBST on next day, 100 μL of secondary antibody diluted in BSA-PBST was added, and reacted at room temperature for 1 hour. After washing three times with PBST, 100 μL of TMB substrate was added and reacted at room temperature for 10-20 minutes, and 100 μL of 1N sulfuric acid solution was added to terminate the reaction. Then, the degree of SDMA inhibition by the compound was calculated by measuring the absorbance at 450 nm.

[2] = tested on: cancer cell lines of Table 2 (A549, A549/CR, A549/PR, CAPAN-1, NCI-H1048, MDA-MB-231, Mia PaCa-2, SNU-324, OVCAR3, PA-1, PANC-1, U-87 MG); experiment: Cell viability assay (WST) with combination synergy analysis (Bliss score); format: cell-based, human; details: combination with various DNA damage inducers, FIGS. 1 to 25; culture ended on days 7 to 9
Protocol: Most cell lines were obtained from the American Type Culture Collection (ATCC) or the Korean Cell Line Bank (KCLB). Combination experiments in cisplatin-resistant and paclitaxel-resistant cell lines were performed at the Asan Preclinical Evaluation center for cancer therapeutiX of Asan Medical Center, Seoul. All cell lines were maintained in appropriate growth medium for the cell line in 100-pi dishes oRT75 (75 cm2) flasks, cultured at 37° C. with 5% CO2, and passaged every 3-4 days. Growth medium conditions and cell line information are listed in Table 2, and the cells were counted using Countess (Invitrogen) to obtain the number of viable cells. Mutation and HRD status by cell type are described in Table 3.
The next day, compound-87 was diluted 1/2 to 1/4 to a concentration of 20 μM to 0.002 μM and treated at a set concentration range, and the co-administered drug was diluted 1/2 to 1/3 to a concentration of 100 μM to 0.00046 μM and treated at a 1:1 (v/v) ratio. Finally, the treatment ratio of compound-87 and the co-administered substance was between 1:20000 and 1:0.00015, and in clinical practice, compound-87: drug to be co-administered can be treated at a ratio of 1:10000 to 1:0.0001.
PANC-1 (wild-type BRCA1/BRCA2) pancreatic cancer cells were treated with compound-87 at concentrations of […], and E7016, a PARP inhibitor as a co-administered agent at concentration of 0.078, 0.156, 0.313, 0.625, 1.25, 2.5, 5, or 10 μM (FIG. 25). Cell culture was terminated on days 7 to 9, and cell viability and synergistic effect were evaluated for each combination of concentrations.
Cell viability was measured by a colorimetric assay using water-soluble tetrazolium salt (WST). […]
Results are normalized to DMSO-treated groups as 100% and expressed as the percent of viable cells upon compound addition. […]
The synergy of each compound was analyzed using Combenefit software (Cambridge Research UK, Cambridge Institute, University of Cambridge, United Kingdom), and synergy was evaluated by using Blliss (Ref: Di Veroli et al., 2016, Bioinformatics 32(18):2866-2868). […]

[3] = tested on: human small cell lung cancer cells NCI-H1048; experiment: Subcutaneous xenograft mouse model of NCI-H1048 small cell lung cancer cells, tumor growth inhibition; format: in vivo; details: day 23; cisplatin alone, 4 mg/kg intraperitoneally once a week
Protocol: For in vivo efficacy study in a subcutaneous xenograft mouse model of human small cell lung cancer cells NCI-H1048, co-administration of compound-87 as a PRMT5 inhibitor according to an example of the present invention and cisplatin as an alkylating agent of a chemotherapeutic agent, was performed. To produce a small cell lung cancer xenograft model, 10 million of NCI-H1048 cells were injected subcutaneously into the right flank of female nude mice, and tumor growth was monitored.
To evaluate the anticancer effect, when the tumor volume reached approximately 162 mm^3 on average, the mice were divided into four groups. The all group included a solvent-treated group (Vehicle 1 (Compound-87)+Vehicle 2 (cisplatin) group), a Compound-87 monotherapy group (50 mg/kg), a cisplatin monotherapy group (4 mg/kg), and combination therapy group of Compound-87 and cisplatin. The Compound-87 treatment group was administered orally on a 3-day administration/4-day non-administration schedule, and cisplatin was administered intraperitoneally once a week for 22 days (Day 1-Day 23). All mice were euthanized on Day 22 (Day 23).

[4] = tested on: CTG-1932, a human non-small cell lung cancer patient-derived cell line; experiment: Subcutaneous xenograft mouse model of patient-derived CTG-1932 non-small cell lung cancer, tumor growth inhibition; format: in vivo; details: day 9; paclitaxel 20 mg/kg i.p. once a week, single treatment; significant
Protocol: For in vivo efficacy studies in a subcutaneous xenograft mouse model of CTG-1932, a human non-small cell lung cancer patient-derived cell line, combination therapy of compound-87 as a PRMT5 inhibitor according to one example of the present invention and with paclitaxel as a chemotherapy agent, was performed at Champions Oncology (USA).
To produce a non-small cell lung cancer xenograft model, CTG-1932 tumor stock was grown and harvested from primary mice and then transplanted subcutaneously into the left flank of immunocompromised female mice as a 5×5×5 mm^3 tumor fragment. When the tumor volume reached approximately 150-300 mm^3, the mice were separated into four groups of 10 each. All group consisted of a solvent-treated group (vehicle group), a compound-87 monotherapy group (50 mg/kg, oral administration, 3 days on/4 days off), a paclitaxel monotherapy group (20 mg/kg, intraperitoneal administration once a week), and combination treatment group of compound-87 (50 mg/kg, oral administration, 3 days on/4 days off) and paclitaxel (20 mg/kg, intraperitoneal administration once a week). tumor volume and body weight were measured twice a week.

[5] = tested on: glioblastoma; details: glioblastoma chemotherapy; cited from earlier work

With `CC(=O)N1CCC(Oc2ccc3c(c2)OCCN(C[C@H](O)CN2CCc4ccccc4C2)C3=O)CC1` [Compound-78, 8-[(1-acetyl-4-piperidyl)oxy]-4-[(2R)-3-(3,4-dihydro-1H-isoquinolin-2-yl)-2-hydroxy-propyl]-2,3-dihydro-1,4-benzoxazepin-5-one] the “SDMA amount in tumor samples compared to the vehicle group” value ([1]; 25 mg/kg) was 33.5%, the “SDMA amount in tumor samples compared to the vehicle group” value ([1]; 50 mg/kg) was 24.9% and the inhibition at 25 mg/kg ([1]; Mus musculus, MIA PaCa-2, 25 mg/kg) was 66.5%. For the same compound, the inhibition at 50 mg/kg ([1]; Mus musculus, MIA PaCa-2, 50 mg/kg) was 75.1%.
With `CN1CCC(Oc2ccc3c(c2)OC(C)(C)CN(C[C@H](O)CN2CCc4ccccc4C2)C3=O)CC1` [Compound-112, 4-[(2R)-3-(3,4-dihydro-1H-isoquinolin-2-yl)-2-hydroxy-propyl]-2,2-dimethyl-8-[(1-methyl-4-piperidyl)oxy]-3H-1,4-benzoxazepin-5-one] the “inhibition of cell viability, combination treatment compared to single agent” value [2] was “enhanced inhibition effects of cell viability”.
With `O=C1c2ccc(O[C@@H]3CCN(C4COC4)C3)cc2OCCN1C[C@H](O)CN1CCc2ccccc2C1` [Compound-271, 4-[(2R)-3-(3,4-dihydro-1H-isoquinolin-2-yl)-2-hydroxy-propyl]-8-[(3R)-1-(oxetan-3-yl)pyrrolidin-3-yl]oxy-2,3-dihydro-1,4-benzoxazepin-5-one] the “inhibition of cell viability, combination treatment compared to single agent” value [2] was “enhanced inhibition effects of cell viability”.
With `N.N.[Cl][Pt][Cl]` [cisplatin, azane; dichloroplatinum, reference compound] the “tumor growth inhibition rate” value [3] was 62.9%.
With `CC(=O)O[C@H]1C(=O)[C@@]2(C)[C@H]([C@H](OC(=O)c3ccccc3)[C@]3(O)C[C@H](OC(=O)[C@H](O)[C@@H](NC(=O)c4ccccc4)c4ccccc4)C(C)=C1C3(C)C)[C@]1(OC(C)=O)CO[C@@H]1C[C@@H]2O` [paclitaxel, [(1S,2S,3R,4S,7R,9S,10S,12R,15S)-4,12-diacetyloxy-15-[(2R,3S)-3-benzamido-2-hydroxy-3-phenylpropanoyl]oxy-1,9-dihydroxy-10,14,17,17-tetramethyl-11-oxo-6-oxatetracyclo[11.3.1.03,10.04,7]heptadeca-13-en-2-yl]benzoate, reference compound] the “tumor growth inhibition compared to the solvent-treated group” value [4] was 75%.
For `Cn1nnc2c(C(N)=O)ncn2c1=O` [temozolomide, 3-methyl-4-oxoimidazo[5,1-d][1,2,3,5]tetrazine-8-carboxamide], the average survival [5] is given as at most 14.5 months.
